Columns and labels:
rape [1] = assay: Postemergent control of plant species; type: in vivo, Brassica napus; conditions: Brassica napus, post-emergence, 336 h, read-out: percent postemergent control
Method: (§1) In representative operations, each compound to be utilized in a series of tests is dissolved in acetone to one-half of the final volume (twice the final concentration) to be used and the acetone solution in each case is admixed with an equal volume of water containing 0.1 percent by weight of surface active material. The compositions, generally in the nature of an emulsion, were employed to spray separate respective plant species which had been grown to a 2-4 leaf stage in soil of good nutrient content in a greenhouse. The various beds were positioned side by side and exposed to substantially identical conditions of temperature and light. Each bed was maintained so as to prevent any interaction with test compounds in different seed beds. Other plants were left untreated to serve as controls. After treatment, the plants were maintained for about two weeks under greenhouse conditions conducive for good plant growth and watered as necessary. Control refers to the reduction in growth compared to the observed results of the same untreated species.

yellow foxtail [2] = assay: Postemergent control of plant species; type: in vivo, Setaria lutescens; conditions: Setaria, post-emergence, 336 h, read-out: percent postemergent control
Method: as §1

wheat [3] = assay: Postemergent control of plant species; type: in vivo, Triticum aestivum; conditions: Triticum aestivum, post-emergence, 336 h, read-out: percent postemergent control
Method: as §1

johnson grass [4] = assay: Postemergent control of plant species; type: in vivo, Sorghum halepense; conditions: Sorghum halepense, post-emergence, 336 h, read-out: percent postemergent control
Method: as §1

soybean [5] = assay: Postemergent control of plant species; type: in vivo, Glycine max.; conditions: Glycine max, post-emergence, 336 h, read-out: percent postemergent control
Method: as §1

sugar beet [6] = assay: Postemergent control of plant species; type: in vivo, Beta saccharifera; conditions: Beta vulgaris, post-emergence, 336 h, read-out: percent postemergent control
Method: as §1

corn [7] = assay: Postemergent control of plant species; type: in vivo, Zea mays; conditions: Zea mays, post-emergence, 336 h, read-out: percent postemergent control
Method: as §1

velvetleaf [8] = assay: Postemergent control of plant species; type: in vivo, Abutilon theophrasti; conditions: Abutilon theophrasti, post-emergence, 336 h, read-out: percent postemergent control
Method: as §1

sorghum [9] = assay: Postemergent control of plant species; type: in vivo, Sorghum vulgare; conditions: Sorghum, post-emergence, 336 h, read-out: percent postemergent control
Method: as §1

jimsonweed [10] = assay: Postemergent control of plant species; type: in vivo, Datura stramonium; conditions: Datura stramonium, post-emergence, 336 h, read-out: percent postemergent control
Method: as §1

annual morning glory [11] = assay: Postemergent control of plant species; type: in vivo, Ipomoea spp.; conditions: Ipomoea, post-emergence, 336 h, read-out: percent postemergent control
Method: as §1

barnyardgrass [12] = assay: Postemergent control of plant species; type: in vivo, Echinochloa crusgalli; conditions: Echinochloa crus-galli, post-emergence, 336 h, read-out: percent postemergent control
Method: as §1

yellow nutsedge [13] = assay: Postemergent control of plant species; type: in vivo, Cyperus esculentus; conditions: Cyperus, post-emergence, 336 h, read-out: percent postemergent control
Method: as §1

cotton [14] = assay: Postemergent control of plant species; type: in vivo, Gossypium spp.; conditions: Gossypium hirsutum, post-emergence, 336 h, read-out: percent postemergent control
Method: as §1

rice [15] = assay: Postemergent control of plant species; type: in vivo, Oryza sativa; conditions: Oryza sativa, post-emergence, 336 h, read-out: percent postemergent control
Method: as §1

wild oats [16] = assay: Postemergent control of plant species; type: in vivo, Avena fatua; conditions: Avena fatua, post-emergence, 336 h, read-out: percent postemergent control
Method: as §1

crabgrass = assay: Postemergent control of plant species; type: in vivo, Digitaria spp.; conditions: Digitaria sanguinalis, post-emergence, 336 h, read-out: percent postemergent control
Method: as §1

pigweed = assay: Postemergent control of plant species; type: in vivo, Amaranthus spp.; conditions: Amaranthus retroflexus, post-emergence, 336 h, read-out: percent postemergent control
Method: as §1

jimsonweed [17] = assay: Preemergent control of plant species; type: in vivo, Datura stramonium; conditions: Datura stramonium, pre-emergence, 336 h; 0.25 lb/acre; read-out: percent preemergent control
In short: (§2)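 Seeds planted in good agricultural soil beds; active ingredients then applied to the bed surface as aqueous emulsion at listed rates. Beds kept two weeks in greenhouse with watering. Control scored against water-treated beds.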

[18] = test system: nitrification of ammonium nitrogen; assay: Suppression of nitrification of ammonium nitrogen in soil; conditions: 27° C.
In short: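 Value is % NH4-N remaining after a two-week, 27° C incubation of treated soil held at 1/3 bar tension moisture. Nitrate was measured with an ion-selective electrode after extraction with ammonium sulfate solution and 10 min shaking.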

soybean [19] = assay: Preemergent control of plant species; type: in vivo, Glycine max.; conditions: Glycine max, pre-emergence, 336 h; 0.25 lb/acre; read-out: percent preemergent control
In short: as §2

cotton [20] = assay: Preemergent control of plant species; type: in vivo, Gossypium spp.; conditions: Gossypium hirsutum, pre-emergence, 336 h; 0.25 lb/acre; read-out: percent preemergent control
In short: as §2

wild oats [21] = assay: Preemergent control of plant species; type: in vivo; conditions: Avena fatua, pre-emergence, 336 h; 0.25 lb/acre; read-out: percent preemergent control
In short: as §2

yellow foxtail [22] = assay: Preemergent control of plant species; type: in vivo, Setaria lutescens; conditions: Setaria, pre-emergence, 336 h; 0.25 lb/acre; read-out: percent preemergent control
In short: as §2

sugar beet [23] = assay: Preemergent control of plant species; type: in vivo, Beta saccharifera; conditions: Beta vulgaris, pre-emergence, 336 h; 0.25 lb/acre; read-out: percent preemergent control
In short: as §2

wheat [24] = assay: Preemergent control of plant species; type: in vivo, Triticum aestivum; conditions: Triticum aestivum, pre-emergence, 336 h; 0.25 lb/acre; read-out: percent preemergent control
In short: as §2

barnyardgrass [25] = assay: Preemergent control of plant species; type: in vivo, Echinochloa crusgalli; conditions: Echinochloa crus-galli, pre-emergence, 336 h; 0.25 lb/acre; read-out: percent preemergent control
In short: as §2

johnson grass [26] = assay: Preemergent control of plant species; type: in vivo, Sorghum halepense; conditions: Sorghum halepense, pre-emergence, 336 h; 0.25 lb/acre; read-out: percent preemergent control
In short: as §2

velvetleaf [27] = assay: Preemergent control of plant species; type: in vivo, Abutilon theophrasti; conditions: Abutilon theophrasti, pre-emergence, 336 h; 0.25 lb/acre; read-out: percent preemergent control
In short: as §2

rice [28] = assay: Preemergent control of plant species; type: in vivo, Oryza sativa; conditions: Oryza sativa, pre-emergence, 336 h; 0.25 lb/acre; read-out: percent preemergent control
In short: as §2

corn [29] = assay: Preemergent control of plant species; type: in vivo, Zea mays; conditions: Zea mays, pre-emergence, 336 h; 0.25 lb/acre; read-out: percent preemergent control
In short: as §2

annual morning glory [30] = assay: Preemergent control of plant species; type: in vivo, Ipomoea spp.; conditions: Ipomoea, pre-emergence, 336 h; 0.25 lb/acre; read-out: percent preemergent control
In short: as §2

sorghum [31] = assay: Preemergent control of plant species; type: in vivo, Sorghum vulgare; conditions: Sorghum, pre-emergence, 336 h; 0.25 lb/acre; read-out: percent preemergent control
In short: as §2

yellow nutsedge [32] = assay: Preemergent control of plant species; type: in vivo, Cyperus esculentus; conditions: Cyperus, pre-emergence, 336 h; 0.25 lb/acre; read-out: percent preemergent control
In short: as §2

rape [33] = assay: Preemergent control of plant species; type: in vivo, Brassica napus; conditions: Brassica napus, pre-emergence, 336 h; 0.25 lb/acre; read-out: percent preemergent control
In short: as §2

Row | Structure (SMILES) | pest or weed control at 280.212 g/ha (jimsonweed [17]) [%] | % NH4-N Remaining After 2 Weeks Incubation ([18]; 0.06 ppm) [%] | % NH4-N Remaining After 2 Weeks Incubation ([18]; 0.25 ppm) [%] | % NH4-N Remaining After 2 Weeks Incubation ([18]; 1 ppm) [%] | % NH4-N Remaining After 2 Weeks Incubation ([18]; 4 ppm) [%] | plant injury at 280.212 g/ha (soybean [19]) [%] | plant injury at 280.212 g/ha (cotton [20]) [%] | pest or weed control at 280.212 g/ha (wild oats [21]) [%] | pest or weed control at 280.212 g/ha (yellow foxtail [22]) [%] | plant injury at 280.212 g/ha (sugar beet [23]) [%] | plant injury at 280.212 g/ha (wheat [24]) [%] | pest or weed control at 280.212 g/ha (barnyardgrass [25]) [%] | pest or weed control at 280.212 g/ha (johnson grass [26]) [%] | pest or weed control at 280.212 g/ha (velvetleaf [27]) [%] | plant injury at 280.212 g/ha (rice [28]) [%] | plant injury at 280.212 g/ha (corn [29]) [%] | pest or weed control at 280.212 g/ha (annual morning glory [30]) [%] | plant injury at 280.212 g/ha (sorghum [31]) [%] | pest or weed control at 280.212 g/ha (yellow nutsedge [32]) [%] | plant injury at 280.212 g/ha (rape [33]) [%] | also measured
1 | CSc1cccc(Cl)c1NS(=O)(=O)c1nc2nc(C)cc(C)n2n1 [Compound 69] |  |  |  |  |  |  |  |  |  |  |  |  |  |  |  |  |  |  |  |  | plant injury at 500 ppm (rape [1]): 90%; pest or weed control at 500 ppm (yellow foxtail [2]): 90%; plant injury at 500 ppm (wheat [3]): 0%; pest or weed control at 500 ppm (johnson grass [4]): 95%; plant injury at 500 ppm (soybean [5]): 40%; plant injury at 500 ppm (sugar beet [6]): 100%; plant injury at 500 ppm (corn [7]): 90%; pest or weed control at 500 ppm (velvetleaf [8]): 85%; plant injury at 500 ppm (sorghum [9]): 80%; pest or weed control at 500 ppm (jimsonweed [10]): 90%; pest or weed control at 500 ppm (annual morning glory [11]): 80%; pest or weed control at 500 ppm (barnyardgrass [12]): 80%; pest or weed control at 500 ppm (yellow nutsedge [13]): 80%; plant injury at 500 ppm (cotton [14]): 90%; plant injury at 500 ppm (rice [15]): 0%; pest or weed control at 500 ppm (wild oats [16]): 0%; pest or weed control at 500 ppm (crabgrass): 80%; pest or weed control at 500 ppm (pigweed): 100%
2 | C=CCOC(=O)c1cccc(C)c1NS(=O)(=O)c1nc2nc(C)cc(C)n2n1 [Compound 76] | 100 | 34 | 52 | 74 | 86 | 95 | 60 | 90 | 90 | 100 | 100 | 70 | 80 | 100 | 70 | 100 | 90 | 90 | 100 | 100 | 
3 | CC(C)=NOC(=O)c1cccc(C)c1NS(=O)(=O)c1nc2nc(C)cc(C)n2n1 [Compound 78] | 0 | 74 | 32 | 53 | 72 | 30 | 0 | 30 | 20 | 70 | 40 | 20 | 0 | 30 | 40 | 10 | 0 | 0 | 50 | 100 | 
4 | COc1ccn2nc(S(=O)(=O)Nc3c(Cl)cccc3Cl)nc2n1 [Compound 208] | 90 | 38 | 38 | 42 | 37 | 45 | 100 | 0 | 0 | 100 | 0 | 0 | 0 | 90 | 0 | 0 | 40 | 30 | 60 | 100 | 
5 | Cc1cc(C)n2nc(S(=O)(=O)N(C)c3c(Cl)cccc3Cl)nc2n1 [Compound 260, 5,7,N-trimethyl-N-(2,6-dichlorophenyl)-1,2,4-triazolo[1,5-a]pyrimidine-2-sulfonamide] |  | 0 | 14 | 37 | 45 |  |  |  |  |  |  |  |  |  |  |  |  |  |  |  | plant injury at 500 ppm (rape [1]): 95%; pest or weed control at 500 ppm (yellow foxtail [2]): 90%; plant injury at 500 ppm (wheat [3]): 0%; pest or weed control at 500 ppm (johnson grass [4]): 95%; plant injury at 500 ppm (soybean [5]): 90%; plant injury at 500 ppm (sugar beet [6]): 100%; plant injury at 500 ppm (corn [7]): 0%; pest or weed control at 500 ppm (velvetleaf [8]): 90%; plant injury at 500 ppm (sorghum [9]): 25%; pest or weed control at 500 ppm (jimsonweed [10]): 95%; pest or weed control at 500 ppm (annual morning glory [11]): 40%; pest or weed control at 500 ppm (barnyardgrass [12]): 50%; pest or weed control at 500 ppm (yellow nutsedge [13]): 0%; plant injury at 500 ppm (cotton [14]): 80%; plant injury at 500 ppm (rice [15]): 0%; pest or weed control at 500 ppm (wild oats [16]): 0%; pest or weed control at 500 ppm (crabgrass): 0%; pest or weed control at 500 ppm (pigweed): 45%
6 | Cc1ccn2nc(S(=O)(=O)N(C(=O)C=Cc3ccccc3)c3c(F)cccc3F)nc2n1 [Compound 293] | 100 |  |  |  |  | 10 | 100 | 95 | 100 | 100 | 60 | 100 | 95 | 100 | 90 | 60 | 70 | 100 | 100 | 100 | 
